One assay deals with T1, MAT2A homodimer (Homo sapiens, UniProt P31153).
T1 construct: inferred from Ni sepharose purification and imidazole elution; made in house; host or cells: SF9 insect cells, recombinant baculovirus (Bac to Bac, pFASTBAC1)
The assay can be described thus: MAT2A biochemical assay (phosphate release, PiColorLock Gold). Particulars: recombinant MAT2A homodimer, 60 min pre-incubation, 25° C.; read-out: Enzyme Inhibition. An outline of the steps:
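Baculovirus/Sf9-expressed, Ni-purified MAT2A homodimer (4 µg/mL in pH 8.0 Tris/KCl/MgCl2 buffer) preincubated 60 min at 25 °C with compound (2% DMSO final). Substrate mix of 500 µM ATP and 400 µM L-methionine added; 60 min at 25 °C; released phosphate quantified colorimetrically against a phosphate standard curve.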

For assay [1], the system named is MAT2A activity (SAM) in HCT116 cells with deleted MTAP gene. The assay can be described thus: Cellular assay of target engagement (SAM) by LC-MS/MS. The class given is cell-based. Conditions: Homo sapiens, read-out: Cell 72 h SAM Inhibition (MTAP −/−). An outline of the steps: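 HCT116 MTAP-deleted cells treated with 10-point 3-fold DMSO serial dilutions of compound for 72 hrs at 37° C. Cells lysed in cold 80% methanol/acetic acid extraction buffer with d3-SAM internal standard; SAM quantified by LC-MS/MS (MRM m/z 399.2→250.1).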

The subject of another assay is HCT116 MTAP−/−. The assay is described as follows: Inhibition of cellular proliferation (Cell Titer Glo), HCT116 MTAP-/-. The class given is cell-based. Particulars: Homo sapiens, HCT-116, 96 h, 4 days, read-out: 4 Day Relative Growth Inhibition (MTAP −/−). In a few lines: (§1)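 Isogenic HCT116 MTAP+/+ and MTAP−/− cells treated 24 h after plating with 10-point 3-fold dilutions, then grown 4 days at 37 °C/5% CO2. ATP content read by Cell Titer Glo luminescence, blank-subtracted and normalized to 0.2% DMSO control, plotted as percent proliferation change versus log molar concentration.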

The test system of a further assay is HCT116 MTAP+/+. The assay is described as follows: Inhibition of cellular proliferation (Cell Titer Glo), HCT116 MTAP+/+. Type of assay: cell-based. Particulars: Homo sapiens, HCT-116, 96 h, 4 days, read-out: 4 Day Relative Growth Inhibition (MTAP +/+). An outline of the steps: as §1
[2] abbreviates: HCT-116, HCT116 MTAP −/−, 72 hrs.

Like-named read-outs stand apart in the source and are kept apart here. A value given as a limit tells only on which side of the number the result lay.

T1 sequence (P31153 whole entry): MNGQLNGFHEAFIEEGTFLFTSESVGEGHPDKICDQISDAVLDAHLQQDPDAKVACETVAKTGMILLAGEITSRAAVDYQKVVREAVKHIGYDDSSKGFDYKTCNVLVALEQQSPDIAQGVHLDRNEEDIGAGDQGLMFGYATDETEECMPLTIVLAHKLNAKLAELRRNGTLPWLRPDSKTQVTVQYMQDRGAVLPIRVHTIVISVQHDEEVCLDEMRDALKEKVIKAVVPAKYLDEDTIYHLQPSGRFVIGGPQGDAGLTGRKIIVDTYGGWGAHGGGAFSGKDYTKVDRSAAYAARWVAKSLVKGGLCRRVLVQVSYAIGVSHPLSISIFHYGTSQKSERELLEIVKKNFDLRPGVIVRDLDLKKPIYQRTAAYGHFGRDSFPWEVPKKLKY

As for `Cn1cc2cc(-n3nc4c(COC5CCCCO5)cc(OCC(F)F)nc4c(-c4ccc(OC(F)F)cc4)c3=O)ccc2n1` (centres unmarked) [Example 142, 6-(2,2-difluoroethoxy)-4-(4-(difluoromethoxy)phenyl)-2-(2-methyl-2H-indazol-5-yl)-8-(((tetrahydro-2H-pyran-2-yl)oxy)methyl)pyrido[3,2-c]pyridazin-3(2H)-one], the IC50 is < 100 nM on MAT2A homodimer; 100 to 1000 nM in assay [1] (HCT-116, 72 h); 100 to 1000 nM in the assay with HCT116 MTAP−/−; ≥ 1000 nM in the assay on HCT116 MTAP+/+.
On to `Cc1ccc(-c2c(=O)n(-c3ccc4nn(C)cc4c3)nc3ccc(NCC(F)F)nc23)cn1` [Example 318], for which the IC50 is < 100 nM on MAT2A homodimer, < 100 nM in assay [1] (setting [2]), < 100 nM with HCT116 MTAP−/− and ≥ 1000 nM in the assay on HCT116 MTAP+/+.
For the molecule `COc1c2cc(-n3nc4ccc(OCC(F)F)nc4c(-c4ccc(Cl)cc4)c3=O)ccc2nn1C` [Example 174], the IC50 at MAT2A homodimer was < 100 nM; in assay [1] (setting [2]), < 100 nM; with HCT116 MTAP−/−, < 100 nM; in the assay on HCT116 MTAP+/+, ≥ 1000 nM.
Turning to `Cn1cc2cc(-n3nc4ccc(OCC(F)F)nc4c(-c4ccc5[nH]ccc5c4)c3=O)ccc2n1` [Example 150], the IC50 at MAT2A homodimer was < 100 nM; in assay [1] (setting [2]) it was < 100 nM; in the assay on HCT116 MTAP−/− it was < 100 nM; with HCT116 MTAP+/+, ≥ 1000 nM.
Turning to `CCOc1ccc2nn(-c3ccc4nn(C)cc4c3)c(=O)c(-c3ccc(OC(F)F)cc3)c2n1` [Example 217, 4-(4-(difluoromethoxy)phenyl)-6-ethoxy-2-(2-methyl-2H-indazol-5-yl)pyrido[3,2-c]pyridazin-3(2H)-one], the IC50 on MAT2A homodimer is < 100 nM; in assay [1] (setting [2]), < 100 nM; with HCT116 MTAP−/− it was < 100 nM; in the assay with HCT116 MTAP+/+, 100 to 1000 nM.

The values above are taken from patent US12077534B2, “Aza-heterobicyclic inhibitors of MAT2A and methods of use for treating cancer” (Les Laboratoires Servier SAS, priority 2018, dated 2024).
